Measured values: US20040157773A1, “Farnesyl protein transferase inhibitors for treating cachexia” (priority 2003, published 2004)

Legend:
[1] = Body weight loss (cachexia) in nude mice bearing subcutaneous A375.S2 tumors; type: in vivo; details: for reduction in weight loss: weight loss day 1 to day 23, corrected for tumor burden, vs vehicle
Text: (§1) A375.S2 human melanoma cells were purchased from the American Type Culture Collection (Rockville, Md.). Cells were maintained in Dulbecco's Modified Eagle's Medium supplemented with pyruvate, nonessential amino acids, 10% fetal calf serum and penicillin-streptomycin.
(§2) Female nu/nu immunodeficient nude mice (42 days old) were purchased from Charles River Laboratories (Wilmington, Mass.). Mice were housed five per cage in microisolator cages placed in laminar flow shelving to maintain sterility. All bedding, food, water and cages were autoclaved. Animals were handled within the sterile confines of a laminar flow cabinet. The mice were otherwise maintained under standard vivarium conditions.
Cells growing as monolayers in T150 tissue culture flasks were detached by trypsinization with 10 ml of 0.05% trypsin plus 0.53 mM EDTA per flask. Tumor cell suspensions were pooled and trypsin was inactivated by the addition of serum containing medium (10 ml per 40 ml of trypsin cell suspension). Cells were collected by centrifugation and resuspended in Hank's Balanced Salt Solution (HBSS) warmed to 37° C. A 1.0 ml portion of cell suspension was added to 20 ml of diluent and counted on a Coulter particle counter. The cell suspensions were recentrifuged and resuspended at a concentration of 1×10^6 cell per 0.10 ml of HBSS. Mice were inoculated with a single subcutaneous injection of 0.10 ml of tumor cell suspension in the inguinal region. Mice were housed five per cage with 15 mice assigned to each treatment group. Mice were tagged by ear punches to allow the monitoring of individual mice during the course of the study. Body weight and tumor size determined from caliper measurements were measured weekly. The caliper measurements of length and width were multiplied to obtain tumor areas. At the end of study, mice were sacrificed by CO2 asphyxiation. Three days after tumor inoculation, the five-day treatment with R115777 was initiated. R115777 was administered once daily by oral gavage in a 20% β-cyclodextrin vehicle as a volume of 0.10 ml of solution per 10 gm body weight. Control groups received the same dosage volume of the 20% β-cyclodextrin vehicle.
R115777 was prepared for oral administration by dissolving the compound first as a 2× concentrated stock in 40% hydroxypropyl β-cyclodextrin in 0.1 N HCl. R115777 was dissolved by stirring vigorously approximately 30 minutes followed by sonication for 10 min. The R115777 solutions were brought to a final concentration by diluting 1:1 with 0.1 N HCl. The final drug solutions were sterile filtered immediately and transferred to sterile tubes. Solutions were stored refrigerated and protected from light during the course of the study and sterility was maintained by opening solutions under sterile laminar flow conditions.
(§3) Analysis of variance, mean values for treatment groups and standard error of the mean for in vivo parameters were calculated using IMSL subroutines on a VAX computer. A value of p<0.05 was considered significant. Weight loss was calculated for each individual animal from day 1 to day 23. Mean body weight loss for each treatment group was calculated and used for statistical analyses.

[2] = tested on: A375.S2 human melanoma cells; assay: Tumor growth of subcutaneous A375.S2 xenografts in nude mice; type: in vivo; details: oral
Text: as §1, §2
Cells growing as monolayers in T150 tissue culture flasks were detached by trypsinization with 10 ml of 0.05% trypsin plus 0.53 mM EDTA per flask. […] A 1.0 ml portion of cell suspension was added to 20 ml of diluent and counted on a Coulter particle counter. […]
as §3, with “A value of p<0.05 was considered significant.” left out

SMILES: Cn1cncc1C(N)(c1ccc(Cl)cc1)c1ccc2c(c1)c(-c1cccc(Cl)c1)cc(=O)n2C (single isomer, unassigned; (+)) [R115777, (+)-6-[amino(4-chlorophenyl)(1-methyl-1H-imidazol-5-yl)methyl]-4-(3-chlorophenyl)-1-methyl-2(1H)-quinolinone]
- reduction in weight loss ([1]; 50 mg/kg once daily oral gavage, A375.S2 tumor-bearing nude mice): 28%
- reduction in weight loss ([1]; 100 mg/kg once daily oral gavage, A375.S2 tumor-bearing nude mice): 45%
- reduction in weight loss ([1]; 200 mg/kg once daily oral gavage, A375.S2 tumor-bearing nude mice): 67%
- body weight course (weight loss) ([1]; oral, 50-200 mg/kg, body weight over time from day 14 (FIG. 2), A375.S2 tumor-bearing nude mice): appeared to prevent or delay the weight loss in a dose-dependent fashion
- body weight loss, statistical result ([1]; oral, 50-200 mg/kg, individual weight loss day 1 to day 23 corrected for tumor burden (FIG. 3), p<0.05 significant): significant dose dependent reduction of body weight loss
- reduction of final tumor weight ([2]; highest tested dose, postmortem tumor weight (FIG. 5)): 27%
- tumor growth from tumor area measurements ([2]; 50-200 mg/kg, biweekly tumor area measurements (FIG. 1)): minimal reduction in tumor growth
